Results: ChEMBL document CHEMBL1126278, “New neplanocin analogues. 1. Synthesis of 6'-modified neplanocin A derivatives as broad-spectrum antiviral agents” (J Med Chem, 1992)
Converted amounts (≈) assume the structure as drawn.

What was measured:
[1] = test system: HEL; assay: Inhibitory effect on replication of DNA virus CMV (AD-169) on HEL cell line.; type: functional, cell-based; conditions: Homo sapiens
[2] = test system: HEL; assay: Inhibitory effect on replication of DNA virus CMV (Davis) on HEL cell line.; type: functional, cell-based; conditions: Homo sapiens
[3] = test system: HEL; assay: Inhibitory effect on replication of DNA virus TK-VZV (07-1) on HEL cell line.; type: functional, cell-based; conditions: Homo sapiens
[4] = test system: HEL; assay: Inhibitory effect on replication of DNA virus TK-VZV (YSR) on HEL cell line.; type: functional, cell-based; conditions: Homo sapiens
[5] = test system: HEL; assay: Inhibitory effect on replication of DNA virus VZV (Oka) on HEL cell line.; type: functional, cell-based; conditions: Homo sapiens
[6] = test system: HEL; assay: Inhibitory effect on replication of DNA virus VZV (YS) on HEL cell line.; type: functional, cell-based; conditions: Homo sapiens
[7] = test system: HeLa; assay: Inhibitory effect on replication of RNA virus coxsB-4 in HeLa cell line.; type: functional, cell-based; conditions: Homo sapiens
[8] = test system: HeLa; assay: Inhibitory effect on replication of RNA virus RSV in HeLa cell line; type: functional, cell-based; conditions: Homo sapiens
[9] = test system: HeLa; assay: Inhibitory effect on replication of RNA virus VSV in HeLa cell line.; type: functional, cell-based; conditions: Homo sapiens
[10] = test system: HeLa; assay: Inhibitory effect on replication of RNA virus cell morphology in HeLa cell line.; type: functional, cell-based; conditions: Homo sapiens
[11] = test system: MDCK; assay: Inhibitory effect on replication of RNA virus cell morphology in MDCK cell line.; type: functional, cell-based; conditions: Canis lupus familiaris
[12] = test system: MT4; assay: Inhibitory effect on replication of RNA virus HIV-1 in MT-4 cell line.; type: functional, cell-based; conditions: Homo sapiens
[13] = test system: MT4; assay: Inhibitory effect on replication of RNA virus HIV-2 in MT-4 cell line.; type: functional, cell-based; conditions: Homo sapiens
[14] = test system: MT4; assay: Inhibitory effect on replication of RNA virus cell growth in MT-4 cell line.; type: functional, cell-based; conditions: Homo sapiens
[15] = test system: PRK; assay: Inhibitory effect on replication of DNA virus Cell morphology on PRK cell line; type: functional, cell-based; conditions: Oryctolagus cuniculus
[16] = test system: PRK; assay: Inhibitory effect on replication of DNA virus VV on PRK cell line.; type: functional, cell-based; conditions: Oryctolagus cuniculus
[17] = Inhibitory effect on replication of DNA virus HSV-1 (KOS) in PRK cell line.; type: functional, cell-based; conditions: Oryctolagus cuniculus
[18] = Inhibitory effect on replication of DNA virus HSV-2 (G) in PRK cell line.; type: functional, cell-based; conditions: Oryctolagus cuniculus
[19] = test system: PRK; assay: Inhibitory effect on replication of RNA virus VSV in PRK cell line.; type: functional, cell-based; conditions: Oryctolagus cuniculus
[20] = test system: PRK; assay: Inhibitory effect on replication of RNA virus cell morphology in PRK cell line.; type: functional, cell-based; conditions: Oryctolagus cuniculus
[21] = target: Adenosylhomocysteinase (Mus musculus, UniProt P50247); assay: Inhibitory effect against L929 Cell S-adenosyl-L-homocysteine hydrolase
[22] = test system: Vero; assay: Inhibitory effect on replication of RNA virus coxsB-4 in Vero cell line; type: functional, cell-based; conditions: Chlorocebus sabaeus
[23] = test system: Vero; assay: Inhibitory effect on replication of RNA virus measles on Vero cell line.; type: functional, cell-based; conditions: Chlorocebus sabaeus
[24] = test system: Vero; assay: Inhibitory effect on replication of RNA virus reo-1 in Vero cell line.; type: functional, cell-based; conditions: Chlorocebus sabaeus
[25] = test system: Vero; assay: Inhibitory effect on replication of RNA virus JV in Vero cell line.; type: functional, cell-based; conditions: Chlorocebus sabaeus
[26] = test system: Vero; assay: Inhibitory effect on replication of RNA virus SFV in Vero cell line; type: functional, cell-based; conditions: Chlorocebus sabaeus
[27] = test system: Vero; assay: Inhibitory effect on replication of RNA virus SV in Vero cell line.; type: functional, cell-based; conditions: Chlorocebus sabaeus
[28] = test system: Vero; assay: Inhibitory effect on replication of RNA virus TV in Vero cell line.; type: functional, cell-based; conditions: Chlorocebus sabaeus
[29] = test system: Vero; assay: Inhibitory effect on replication of RNA virus RNA synthesis in Vero cell line.; type: functional, cell-based; conditions: Chlorocebus sabaeus
[30] = test system: Vero; assay: (§1) Inhibitory effect on replication of RNA virus cell morphology in Vero cell line.; type: functional, cell-based; conditions: Chlorocebus sabaeus
[31] = test system: Vero; assay: Inhibitory effect on replication of RNA virus protein synthesis in Vero cell line.; type: functional, cell-based; conditions: Chlorocebus sabaeus
[32] = test system: Vero; assay: Inhibitory effect on replication of RNA virus PV-3 in Vero cell line.; type: functional, cell-based; conditions: Chlorocebus sabaeus
[33] = test system: HeLa; assay: cells; conditions: Homo sapiens
[34] = test system: MDCK; assay: cells; conditions: Canis lupus familiaris
[35] = test system: MDCK; assay: cells; conditions: Canis lupus familiaris; remark: listed apart in the source
[36] = test system: HEL; assay: Inhibitory effect on replication of DNA virus Cell growth on HEL cell line.; type: functional, cell-based; conditions: Homo sapiens
[37] = test system: PRK; assay: Inhibitory effect on replication of virus Cell morphology on PRK cell line; type: functional, cell-based; conditions: Oryctolagus cuniculus
[38] = test system: Vero; assay: as §1; type: functional, cell-based, Homo sapiens; conditions: Chlorocebus sabaeus

Chain of Adenosylhomocysteinase (P50247 whole entry): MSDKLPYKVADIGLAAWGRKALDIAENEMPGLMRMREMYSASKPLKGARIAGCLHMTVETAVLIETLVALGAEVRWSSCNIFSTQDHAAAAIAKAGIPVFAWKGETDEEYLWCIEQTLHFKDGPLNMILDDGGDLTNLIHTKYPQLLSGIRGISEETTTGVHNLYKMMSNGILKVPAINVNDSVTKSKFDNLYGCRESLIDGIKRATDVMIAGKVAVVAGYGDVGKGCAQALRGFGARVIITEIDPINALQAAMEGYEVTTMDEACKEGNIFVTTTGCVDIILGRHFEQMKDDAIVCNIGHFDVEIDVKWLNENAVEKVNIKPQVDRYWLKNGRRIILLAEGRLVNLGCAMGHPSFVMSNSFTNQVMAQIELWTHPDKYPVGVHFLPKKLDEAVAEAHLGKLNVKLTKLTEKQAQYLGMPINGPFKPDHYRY

Compound	IC50 [1] [µg/mL]	IC50 [2] [µg/mL]	IC50 [3] [µg/mL]	IC50 [4] [µg/mL]	IC50 [5] [µg/mL]	IC50 [6] [µg/mL]	IC50 [7] [µg/mL]	IC50 [8] [µg/mL]	IC50 [9] [µg/mL]	IC50 [10] [µg/mL]	IC50 [11] [µg/mL]	IC50 [12] [µg/mL]	IC50 [13] [µg/mL]	IC50 [14] [µg/mL]	IC50 [16] [µg/mL]	IC50 [17] [µg/mL]	IC50 [18] [µg/mL]	IC50 [19] [µg/mL]	IC50 [20] [µg/mL]	IC50 [22] [µg/mL]	other results
CC1=C[C@@H](n2cnc3c(N)ncnc32)[C@H](O)[C@@H]1O	2.5 (≈ 10.1 µM)	1.5 (≈ 6.07 µM)	4 (≈ 16.2 µM)	10 (≈ 40.4 µM)	20 (≈ 80.9 µM)	2 (≈ 8.09 µM)	> 200	10 (≈ 40.4 µM)	7 (≈ 28.3 µM)	> 400	> 100	> 1.5	> 1.5	2.5 (≈ 10.1 µM)	0.7 (≈ 2.83 µM)	> 200	> 200	0.7 (≈ 2.83 µM)	> 400	> 200	IC50 [15]: > 400 µg/mL; Ki [21]: 150 nM; IC50 [23]: 4 µg/mL (≈ 16.2 µM); IC50 [24]: 0.7 µg/mL (≈ 2.83 µM); IC50 [25]: 0.4 µg/mL (≈ 1.62 µM); IC50 [26]: > 200 µg/mL; IC50 [27]: > 200 µg/mL; IC50 [28]: 0.4 µg/mL (≈ 1.62 µM); IC50 [29]: 1.7 µg/mL (≈ 6.88 µM); IC50 [30]: 40 µg/mL (≈ 162 µM); IC50 [31]: 4.7 µg/mL (≈ 19 µM); IC50 [32]: 20 µg/mL (≈ 80.9 µM); IC50 [33]: > 200 µg/mL; IC50 [34]: > 100 µg/mL; IC50 [35]: > 100 µg/mL
CSCC1=C[C@@H](n2cnc3c(N)ncnc32)[C@H](O)[C@@H]1O	1.5 (≈ 5.11 µM)	1 (≈ 3.41 µM)	2 (≈ 6.82 µM)	5 (≈ 17 µM)	2.5 (≈ 8.52 µM)	2 (≈ 6.82 µM)	> 200	> 40	> 200	> 400	> 100	> 40	> 40	60 (≈ 205 µM)	70 (≈ 239 µM)	> 400	> 400	70 (≈ 239 µM)	> 400	> 200	IC50 [36]: 9 µg/mL (≈ 30.7 µM); IC50 [37]: > 400 µg/mL; IC50 [23]: 40 µg/mL (≈ 136 µM); IC50 [24]: 40 µg/mL (≈ 136 µM); IC50 [38]: > 400 µg/mL; IC50 [25]: 40 µg/mL (≈ 136 µM); IC50 [26]: > 400 µg/mL; IC50 [27]: > 200 µg/mL; IC50 [28]: 40 µg/mL (≈ 136 µM); IC50 [32]: > 200 µg/mL; IC50 [33]: > 200 µg/mL; IC50 [34]: > 100 µg/mL; IC50 [35]: > 100 µg/mL
